Source: US6433178B1, “3-alkyl-3-phenyl-piperidines” (Warner-Lambert Company, priority 1996, dated 2002)

How the values were obtained:
human NK1 receptors = target: T1, human NK1 receptors (Homo sapiens, UniProt P25103); assay: Receptor binding in transfected CHO cells (125I-labeled ligand displacement), NK1; conditions: CHO cells expressing human NK1; 0.2 nM 125I-labeled ligand; 1 hour at room temperature
T1 construct: expressed in transfected cells; host or cells: CHO cells
Description: (§1) 1. Receptor Binding in Transfected CHO Cells
(§2) CHO cells expressing either human NK1 or NK3 receptors were cultured in Ham's F-12 Nutrient Mixture supplemented with 10% fetal call serum and 1% penicillin/streptomycin. Cells were seeded to 96-well Wallac (Gaithersburg, Md.) rigid crosstalk corrected cell culture plate 1 day before experiment. On the day of each experiment, cells were washed twice with phosphate buffered saline (PBS) and appropriate agonists or antagonists were added and incubated in 0.2 nM ^125I-labeled ligand in PBS containing 0.4 mg/mL BSA, 0.08 mg/mL bacitracin, 0.004 mg/mL chymostatin, 0.004 mg/mL leupeptin, 1 μM thiorphan, 25 μM phosphoramidon, and 2 mM MnCl2. The cells were incubated for 1 hour at room temperature and the reactions terminated by two washes with ice cold PBS. Fifty microliters of 2% SDS followed by 175 μL of Ready Gel (Beckman) were added to each well. Plates were vortexed, and the radioactivity was quantified in a Wallac 1450 microbeta scintillation counter. Nonspecific binding was determined in the presence of 1 μM unlabeled corresponding ligand. Receptor binding data were analyzed with nonlinear curve fitting using KaleidaGraph software package (PCS Inc., Reading, Pa.). IC50 values were determined using a modified Hill equation, [formula]
(§3) where cold ligand represents unlabeled ligand, L represents the concentration of unlabeled ligand, n the Hill coefficient, and IC50 the concentration of unlabeled ligand that causes 50% inhibition of the total specific binding of 0.2 nM radiolabeled ligand.

NK3 receptors [1] = target: T2, NK3 receptors (Homo sapiens, UniProt P29371); assay: Receptor binding in transfected CHO cells (125I-labeled ligand displacement), NK3; conditions: CHO cells expressing human NK3; 0.2 nM 125I-labeled ligand; 1 hour at room temperature
T2 construct: expressed in transfected cells; host or cells: CHO cells
T2 sequence (P29371 1-465): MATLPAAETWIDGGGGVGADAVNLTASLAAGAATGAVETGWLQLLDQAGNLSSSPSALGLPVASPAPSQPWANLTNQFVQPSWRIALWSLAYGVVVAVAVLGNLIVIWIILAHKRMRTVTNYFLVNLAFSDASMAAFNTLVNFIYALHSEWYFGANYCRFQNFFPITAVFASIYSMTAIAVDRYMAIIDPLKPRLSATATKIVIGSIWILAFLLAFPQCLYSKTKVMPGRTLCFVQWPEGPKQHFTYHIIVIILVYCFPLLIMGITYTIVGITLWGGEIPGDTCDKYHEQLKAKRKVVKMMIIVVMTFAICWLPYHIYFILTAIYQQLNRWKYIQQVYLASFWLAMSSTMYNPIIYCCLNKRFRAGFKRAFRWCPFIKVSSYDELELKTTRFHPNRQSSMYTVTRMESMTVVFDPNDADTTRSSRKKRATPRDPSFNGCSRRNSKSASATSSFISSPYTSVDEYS
Description: as §1, §2, §3

[2] = Pharmacokinetics in male Wistar rats after an oral dose; type: in vivo; conditions: oral dose of ~20 mg/kg, solution in PEG 400/Ethanol/Water (40/15/45); for AUC / Cmax / Tmax / half-life: rat, plasma; for AUC: read-out: AUC(0-tldc) (area under the plasma concentration-time curve from zero time to the last detectable concentration); for Cmax: read-out: Cmax (the highest plasma concentration); for Tmax: read-out: tmax (time to reach the highest plasma concentration); for half-life: read-out: t½ (terminal elimination half-life) (converted)
NK3 receptors [3] = target: T2, NK3 receptors; assay: Inhibition of agonist-induced phosphatidylinositol turnover (inositol phosphates accumulation) in transfected CHO cells; type: cell-based; conditions: CHO cells expressing NK3 receptors; 1 μM of tested compounds; pKB=log(dose ratio−1)−log[B]
Description: 2. Inhibition of Phosphatidylinositol Turnover in Transfected CHO Cells
The inhibitory effects of these compounds on agonist-induced phosphatidylinositol turnover was estimated by measuring their effects on inositol phosphates (IP) accumulation in CHO cells expressing NK3 receptors. Briefly, cells (10,000/well) were seeded in 96-well cell culture plates 24 hours before changing medium to EMEM/F-12 (w/Earle's salt, w/glutamine; GIBCOL) containing 10 μCi/mL [^3H]inositol. After overnight incubation with [^3H]inositol, medium was removed and cells were washed twice with assay buffer (MEM with 10 mM LiCl, 20 mM HEPES, and 1 mg/mL BSA). Cells were then incubated with various concentrations of agonists with or without 1 μM of tested compounds for 1 hour. Reactions were stopped by two washes with ice-cold PBS followed by the addition of 0.1 mL ice-cold 5% TCA to each well. The TCA extract was applied to a […] column containing AG 1-X8 resin (Bio-Rad) and washed three times with 5 mM myo-inositol. Inositol phosphates (IP) was eluted with 1 M ammonium formate/0.1 M formic acid. Radioactivity was determined by liquid scintillation counting. Data were analyzed with nonlinear curve fitting using KaleidaGraph software package (PCS Inc, Reading, Pa.). The pKB values in Table 2 were calculated according to the formula: pKB=log(dose ratio−1)−log[B].

T1 sequence (P25103 whole entry): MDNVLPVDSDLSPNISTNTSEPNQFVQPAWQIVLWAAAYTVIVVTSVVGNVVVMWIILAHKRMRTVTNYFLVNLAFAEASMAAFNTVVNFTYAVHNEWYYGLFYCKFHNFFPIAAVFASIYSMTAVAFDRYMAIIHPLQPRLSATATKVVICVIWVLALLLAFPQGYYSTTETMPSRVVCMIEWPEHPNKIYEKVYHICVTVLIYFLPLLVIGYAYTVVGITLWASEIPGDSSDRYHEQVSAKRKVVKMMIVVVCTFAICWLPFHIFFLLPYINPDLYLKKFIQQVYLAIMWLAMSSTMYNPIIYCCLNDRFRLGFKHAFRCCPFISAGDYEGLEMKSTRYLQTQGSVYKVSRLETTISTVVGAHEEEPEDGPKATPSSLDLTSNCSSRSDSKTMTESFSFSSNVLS

SMILES | IC50 (human NK1 receptors) | IC50 (NK3 receptors [1]) | AUC ([2]; mean (SD)) | Cmax ([2]; mean (SD)) | Tmax ([2]; mean) | tmax (time to reach the highest plasma concentration) ([2]; mean) | AUC(0-tldc) (area under the plasma concentration-time curve from zero time to the last detectable concentration) ([2]; mean (SD)) | Cmax (the highest plasma concentration) ([2]; mean (SD)) | pKB (NK3 receptors [3]) | half-life ([2]; mean) | Kb (NK3 receptors [3])
Cl.O=C(c1ccccc1)N1CCCC(CCCN2CCC(O)(CS(=O)(=O)c3ccccc3)CC2)(c2ccc(Cl)c(Cl)c2)C1 (centres unmarked) [Compound 20-1, {3-[3-(4-Benzensulfonylmethyl-4-hydroxy-piperidin-1-yl]-3-(3,4-dichlorophenyl)-piperidin-1-yl}-phenyl-methanone monohydrochloride] | > 1000 nM | 5.9 ± 0.4 nM | – | – | – | – | – | – | – | – | –
Cl.O=C(c1ccccc1)N1CCCC(CCCN2CCC(O)(c3ccccc3)CC2)(c2ccc(Cl)c(Cl)c2)C1 (centres unmarked) [Compound 20-2, {3-(3,4-Dichlorophenyl)-3-[3-(4-hydroxy-4-phenyl-piperidin-1-yl)-propyl]-piperidin-1-yl}-phenyl-methanone monohydrochloride] | > 1000 nM | 6.2 ± 0.6 nM | 716 ng·h/mL | 125 ng/mL | 1.3 h | – | – | – | – | 7.4 h | 5.01 nM
Cl.O=C(c1ccccc1)N1CCCC(CCCN2CCC(c3ccccc3)CC2)(c2ccc(Cl)c(Cl)c2)C1 (centres unmarked) [Compound 20-3, {3-(3,4-Dichlorophenyl)-3-[3-(4-phenyl-piperidin-1-yl)-propyl]-piperidin-1-yl}-phenyl-methanone monohydrochloride] | 694 ± 89 nM | 17.8 ± 1.5 nM | 572 ng·h/mL | 107 ng/mL | 1.8 h | – | – | – | – | – | 12.6 nM

Continued, in another order:

IC50 (human NK1 receptors) | IC50 (NK3 receptors [1]) | AUC ([2]; mean (SD)) | Cmax ([2]; mean (SD)) | Tmax ([2]; mean) | tmax (time to reach the highest plasma concentration) ([2]; mean) | AUC(0-tldc) (area under the plasma concentration-time curve from zero time to the last detectable concentration) ([2]; mean (SD)) | Cmax (the highest plasma concentration) ([2]; mean (SD)) | pKB (NK3 receptors [3]) | SMILES | half-life ([2]; mean) | Kb (NK3 receptors [3])
– | – | 703 ng·h/mL | 133 ng/mL | 1.8 h | – | – | – | – | CC(=O)N(C)C1(c2ccccc2)CCN(CCC[C@]2(c3ccc(Cl)c(Cl)c3)CCCN(C(=O)c3ccccc3)C2)CC1 [SR 142801, reference compound] | 5.3 h | –
– | – | – | – | – | 1.3 h | 366 (140) ng · hr/mL | 74.0 (12.9) ng/mL | 8.2 ± 0.4 | Cl.O=C(c1ccccc1)N1CCCC(CCCN2CCC(O)(CS(=O)(=O)c3ccccc3)CC2)(c2ccc(Cl)c(Cl)c2)C1 (centres unmarked) [Compound 20-1] | – | –
